Reference: patent publication US20070218483A1, “SITE-SPECIFIC INCORPORATION OF FLUORINATED AMINO ACIDS INTO PROTEINS” (FRANKLIN AND MARSHALL COLLEGE, priority 2006, published 2007)
“Also recorded” adds a separate entry of the source.

Legend:
[1] = tested on: E. coli DH10B cells; details: in vivo NMR cell samples
Method: Labeled NTR was also monitored in vivo.
E. coli DH10B cells containing pDule-tfmPhe1 and pTrc-NTR-124TAG or pTrc-NTR-36TAG were grown in modified minimal media containing supplemented flavin at 10 μM and induced to produce protein with 1.0 mM IPTG at an OD of 0.8. […] Cells were harvested 18 hrs after induction by centrifugation and stored at −80° C. Cells (from 0.5 L of media) for in vivo NMR measurements were thawed on ice, resuspended in 50 mL of PBS buffer (10 mM NaH2PO4, 140 mM NaCl pH 7.8) at 0° C., and repelleted by centrifugation at 5000 g. The cells for in vivo NMR spectra shown for NTR-tfmPhe-36 and NTR-tfmPhe-124 were washed 3 times and 5 times respectively.
NMR data were collected using a Varian Unity INOVA 500 MHz spectrometer fitted with a 5 mm broadband probe. The proton coil was tuned to fluorine frequency (470.114 MHz). Standard decoupling parameters were used with a 100,000 Hz spectral width, 9 μs pulse length (approximately 45°), 2.00 s acquisition time, and 1.00 s relaxation delay. A 10 Hz line broadening was applied and all spectra were recorded at 25±0.2° C. All spectra were locked and referenced to an internal standard containing 0.2% solution of 4-fluorotoluene in toluene-d8 (set at −120.771 ppm referenced from trifluorotoluene at −65.000 ppm). […]

[2] = molecular target: T1, pBpa MjTyrRS/tRNATyrCUA (Methanocaldococcus jannaschii, UniProt Q57834, D158T/E107P/I159S/Q56R/V103L/Y32G); assay: Incorporation into protein in response to TAG codon with pBpa synthetase, SDS-PAGE; assay type: cell-based, Methanococcus jannaschii; details: E. coli, amino acid added to the media, pBpa synthetase (SEQ ID NO: 7)
T1 construct: expressed in transfected cells; host or cells: E. coli carrying pDULE-pBpa
From the text: Incorporation of additional ^19F amino acids with p-benzoyl-phenylalanine (pBpa) synthetase. Using a synthetase known to selectively incorporate pBpa (SEQ ID NO: 7), other ^19F amino acids of similar shape and electrostatics may be incorporated site-specifically into proteins.
Analysis of incorporation of p-fluorobenzoylphenylalanine into protein response to a TAG stop codon in E. coli with evolved pBpa MjTyrRS/tRNA TyrCUA by SDS-PAGE.
(§1) To improve the incorporation efficiency of dfBpa, the active site of pBpa MjTyrRS was altered to better accommodate the slightly larger dfBpa amino acid. Amino acids in the active site (Ser159, Leu65) were reduced in size or reduced in polarity to better accept dfBpa.
(§2) Analysis of fluorinated pBpa-protein by SDS-PAGE.

[3] = molecular target: T2, modified pBpa MjTyrRS/tRNATyrCUA (Methanocaldococcus jannaschii, UniProt Q57834, D158T/E107P/I159A/L65V/Q56R/V103L/Y32G); assay: Incorporation into protein in response to TAG codon with modified pBpa synthetase (Ser159Ala, Leu65Val), SDS-PAGE; assay type: cell-based, Methanococcus jannaschii; details: E. coli, modified pBpa synthetase (SEQ ID NO: 8), Ser159Ala and Leu65Val
T2 construct: expressed in transfected cells; host or cells: E. coli
From the text: as §1, §2

[4] = tested on: HDH; assay: Photo crosslinking of protein upon ultraviolet irradiation, SDS-PAGE; details: amino acid incorporated in protein
From the text: The amino acid pBpa in a protein may be used to determine the structural organization of the protein and conformational changes by initiating crosslinking with nearby peptides via externally provided ultraviolet irradiation. […] The time course of HDH-225pBpa and HDH-225-dfBpa during irradiation was studied by SDS-PAGE.

[5] = tested on: evolved tfmPhe MjTyrRS/tRNATyrCUA; assay: Incorporation into protein in response to TAG codon with tfmPhe synthetase, SDS-PAGE; assay type: cell-based, Methanococcus jannaschii; details: E. coli, amino acid added to the media
From the text: The two top performing synthetases were subcloned into the pDule vector (pDule-tfmPhe1 and pDule-tfmPhe2) for further analysis of a protein containing tfmPhe. The medium copy pDule plasmid is designed to contain both the tRNA^TyrCUA and new synthetase allowing a standard high copy protein expression plasmid for use in production of tfmPhe containing protein.
Selection of tfmPhe specific tRNA-aminoacyl synthetase. A library of tRNA-aminoacyl synthetases was encoded on a kanamycin (Kn) resistant plasmid, pBK-JM-Lib, under control of the constitutive E. coli GlnRS promoter and terminator. The library was transformed by electroporation into DH10B E. coli containing the tetracycline (Tet) resistant positive selection plasmid, pREP2/YC-JYCUA. The positive selection plasmid encodes a mutant tRNA^TyrCUA, an amber disrupted chloramphenicol acetyltransferase, and an amber disrupted T7 RNA polymerase that drives the production of green fluorescent protein. The first positive selection was performed in the presence of 1 mM tfmPhe, 70 μg/mL chloramphenicol (Cm), 50 μg/mL Kn, and 25 μg/mL Tet in a modified GMML media at 37° C. with 250 rpm shaking until the OD was >1.0. Plasmid DNA was extracted and pBK-JM-Lib was separated from pREP2/YC-JYCUA by agarose gel electrophoresis. […]

T2 sequence (Q57834 whole entry Y32G/Q56R/L65V/V103L/E107P/D158T/I159A): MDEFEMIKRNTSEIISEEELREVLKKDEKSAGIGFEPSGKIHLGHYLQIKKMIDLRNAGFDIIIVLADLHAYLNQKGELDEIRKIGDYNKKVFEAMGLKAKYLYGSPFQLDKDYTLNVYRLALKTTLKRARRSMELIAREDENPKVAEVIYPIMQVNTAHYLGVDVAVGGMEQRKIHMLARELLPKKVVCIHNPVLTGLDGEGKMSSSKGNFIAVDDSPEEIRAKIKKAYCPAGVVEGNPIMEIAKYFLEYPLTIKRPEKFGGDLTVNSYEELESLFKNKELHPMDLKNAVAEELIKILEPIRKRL
T1 sequence (Q57834 whole entry Y32G/Q56R/V103L/E107P/D158T/I159S): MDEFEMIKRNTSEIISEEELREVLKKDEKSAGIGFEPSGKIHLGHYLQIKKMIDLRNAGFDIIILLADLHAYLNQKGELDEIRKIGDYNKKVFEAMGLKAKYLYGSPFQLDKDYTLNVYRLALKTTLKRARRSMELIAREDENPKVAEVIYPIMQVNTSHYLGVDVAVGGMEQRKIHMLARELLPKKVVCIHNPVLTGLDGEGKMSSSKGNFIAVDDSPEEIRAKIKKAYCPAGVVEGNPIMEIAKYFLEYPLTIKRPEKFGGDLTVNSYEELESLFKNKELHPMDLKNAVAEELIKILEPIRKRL

Compound | cell permeability [1] | incorporation into protein in response to TAG codon [2] | crosslinking upon irradiation [4] | other results
O=C(O)c1cccnc1 [nicotinic acid] | poor cell permeability |  |  | 
N[C@@H](Cc1ccc(C(=O)c2c(F)cccc2F)cc1)C(=O)O [compound 6, 2′,6′-difluoro-p-benzoylphenylalanine] |  | incorporated in the location coded by TAG; also recorded: less effectively than pBpa or 7 | shown to crosslink upon irradiation | incorporation into protein in response to TAG codon ([2]; listed as dfBpa): full length HDH was produced containing dfBpa; incorporation into protein in response to TAG codon ([3]; listed as dfBpa): high efficiency; also recorded: length HDH was produced containing dfBpa
O=C(N[C@@H](Cc1ccc(F)cc1)C(=O)O)c1ccccc1 [compound 7, p-fluorobenzoylphenylalanine] |  | incorporated in the location coded by TAG | shown to crosslink upon irradiation | incorporation into protein in response to TAG codon ([2]; listed as pfBpa): full length HDH was produced containing pfBpa
Cc1ccc(C[C@H](N)C(=O)O)cc1F [compound 4, 4-methyl-3-fluorophenylalanine] |  |  |  | incorporation into protein in response to TAG codon [5]: incorporated in the location coded by TAG; also recorded: full length HDH was produced containing 4
NC(=O)C1=CN([C@@H]2O[C@H](COP(=O)(O)OP(=O)(O)OC[C@H]3O[C@@H](n4cnc5c(N)ncnc54)[C@H](O)[C@@H]3O)[C@@H](O)[C@H]2O)C=CC1 [NADH, reduced nicotinamide adenine dinucleotide] | poor cell permeability |  |  | 
N[C@@H](Cc1ccc(C(=O)c2ccccc2)cc1)C(=O)O [pBpa, p-benzoyl-phenylalanine, reference compound] |  | full length HDH was produced containing pBpa |  | incorporation into protein in response to TAG codon [3]: high efficiency; also recorded: full length HDH was produced containing pBpa
